ChEMBL document CHEMBL1131484, “Human growth hormone-releasing hormone hGHRH(1-29)-NH2: systematic structure-activity relationship studies” (J Med Chem, 1998)

Target: T1, Growth hormone-releasing hormone receptor (Rattus norvegicus) (UniProt Q02644)
T1 sequence (whole entry): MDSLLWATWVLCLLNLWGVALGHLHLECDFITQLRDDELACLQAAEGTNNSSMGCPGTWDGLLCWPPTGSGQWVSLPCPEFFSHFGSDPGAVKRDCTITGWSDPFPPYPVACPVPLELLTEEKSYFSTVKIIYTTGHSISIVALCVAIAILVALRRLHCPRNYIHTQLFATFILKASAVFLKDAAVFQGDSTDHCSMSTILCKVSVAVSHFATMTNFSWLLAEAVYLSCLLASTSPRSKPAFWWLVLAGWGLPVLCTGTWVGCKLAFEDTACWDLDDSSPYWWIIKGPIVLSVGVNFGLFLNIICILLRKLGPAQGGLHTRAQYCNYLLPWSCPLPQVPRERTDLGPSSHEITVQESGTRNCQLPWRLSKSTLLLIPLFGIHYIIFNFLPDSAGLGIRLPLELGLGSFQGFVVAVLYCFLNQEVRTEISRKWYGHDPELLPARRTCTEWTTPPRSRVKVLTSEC
Experiment: Potency for growth hormone releasing hormone receptor (GHRFR) relative to human GHRH(1-40)OH- in the rat pituitary cell culture assay
Assay type: functional, cell-based
Settings: Pituitary gland cell

Relative potency | Structure (SMILES)
1.1 | CCCC[C@H]1NC(=O)[C@H]([C@@H](C)CC)NC(=O)[C@@H](NC(=O)[C@H](Cc2c[nH]cn2)NC(=O)[C@H](CC(C)C)NC(=O)[C@H](CC(C)C)NC(=O)[C@H](CCCCN)NC(=O)[C@H](CCCN=C(N)N)NC(=O)[C@H](Cc2ccccc2)NC(=O)[C@@H](NC(=O)[C@H](CC(C)C)NC(=O)[C@H](CCC(N)=O)NC(=O)[C@H](C)NC(=O)[C@H](CC(C)C)NC(=O)[C@@H](NC(=O)[C@H](CCCN=C(N)N)NC(=O)[C@H](CCCN=C(N)N)NC(=O)[C@H](Cc2ccc(O)cc2)NC(=O)[C@H](CO)NC(=O)[C@H](CO)NC(=O)[C@@H](NC(=O)[C@H](Cc2ccccc2)NC(=O)[C@@H](NC(=O)[C@H](C)NC(=O)[C@H](CC(=O)O)NC(=O)[C@H](C)NC(=O)[C@@](C)(N)Cc2c[nH]cn2)[C@@H](C)CC)[C@@H](C)O)[C@@H](C)CC)[C@@H](C)CC)CSSC[C@@H](C(N)=O)NC(=O)[C@H](CC(N)=O)NC1=O
10.7 | CCCC[C@H]1NC(=O)[C@H]([C@@H](C)CC)NC(=O)[C@H](NC(=O)[C@H](CCC(N)=O)NC(=O)[C@H](CC(C)C)NC(=O)[C@H](CC(C)C)NC(=O)[C@H](CCCCN)NC(=O)[C@H](CCCN=C(N)N)NC(=O)[C@H](C)NC(=O)[C@H](CO)NC(=O)[C@H](CC(C)C)NC(=O)[C@H](CCC(N)=O)NC(=O)[C@H](C)NC(=O)[C@H](CC(C)C)NC(=O)[C@@H](NC(=O)[C@H](CCCCN)NC(=O)[C@H](CCCN=C(N)N)NC(=O)[C@H](Cc2ccc(O)cc2)NC(=O)[C@H](CO)NC(=O)[C@H](CC(N)=O)NC(=O)[C@@H](NC(=O)[C@H](Cc2ccccc2)NC(=O)[C@@H](NC(=O)[C@H](C)NC(=O)[C@H](CC(=O)O)NC(=O)[C@H](C)NC(=O)[C@@](C)(N)Cc2ccc(O)cc2)[C@@H](C)CC)[C@@H](C)O)C(C)C)CCC(=O)NCC[C@H](C(N)=O)NC(=O)[C@H](CO)NC1=O
0.008 | CC[C@@H](C)[C@@H](NC(=O)[C@@H](C)NC(=O)[C@@H](CC(=O)O)NC(=O)[C@@H](C)NC(=O)[C@H](N)Cc1ccc(O)cc1)C(=O)N[C@H](Cc1ccccc1)C(=O)N[C@@H]1CCC(=O)NCCCC[C@@H](C(=O)N[C@@H](CCCN=C(N)N)C(=O)N[C@@H](CCCCN)C(=O)N[C@H](C(=O)N[C@@H](CC(C)C)C(=O)NCC(=O)N[C@@H](CCC(N)=O)C(=O)N[C@@H](CC(C)C)C(=O)N[C@@H](CO)C(=O)N[C@@H](C)C(=O)N[C@@H](CCCN=C(N)N)C(=O)N[C@@H](CCCCN)C(=O)N[C@@H](CC(C)C)C(=O)N[C@@H](CC(C)C)C(=O)N[C@@H](CCC(N)=O)C(=O)N[C@@H](CC(=O)O)C(=O)N[C@H](C(=O)N[C@@H](CCSC)C(=O)N[C@@H](CO)C(=O)N[C@@H](CCCN=C(N)N)C(N)=O)[C@@H](C)CC)C(C)C)NC(=O)[C@H](CO)NC(=O)[C@@H](CC(N)=O)NC1=O
0.4 | CC[C@@H](C)[C@@H](NC(=O)[C@@H](CC(=O)O)NC(=O)[C@@H](CCC(N)=O)NC(=O)[C@@H](CC(C)C)NC(=O)[C@H]1CCCCNC(=O)CC[C@H](NC(=O)[C@H](CO)NC(=O)[C@H](CC(C)C)NC(=O)[C@H](CCC(N)=O)NC(=O)CNC(=O)[C@H](CC(C)C)NC(=O)[C@@H](NC(=O)[C@H](CCCCN)NC(=O)[C@H](CCCN=C(N)N)NC(=O)[C@H](Cc2ccc(O)cc2)NC(=O)[C@H](CO)NC(=O)[C@H](CC(N)=O)NC(=O)[C@@H](NC(=O)[C@H](Cc2ccccc2)NC(=O)[C@@H](NC(=O)[C@H](C)NC(=O)[C@H](CC(=O)O)NC(=O)[C@H](C)NC(=O)[C@@H](N)Cc2ccc(O)cc2)[C@@H](C)CC)[C@@H](C)O)C(C)C)C(=O)N[C@@H](CCCN=C(N)N)C(=O)N[C@H](CCCCN)C(=O)N1)C(=O)N[C@@H](CCSC)C(=O)N[C@@H](CO)C(=O)N[C@@H](CCCN=C(N)N)C(N)=O
1.8 | CC[C@H](C)[C@H](NC(=O)[C@H](C)NC(=O)[C@H](CC(=O)O)NC(=O)[C@H](C)NC(=O)[C@@H](N)Cc1ccc(O)cc1)C(=O)N[C@@H](Cc1ccccc1)C(=O)N[C@H](C(=O)N[C@@H](CC(N)=O)C(=O)N[C@@H](CO)C(=O)N[C@@H](Cc1ccc(O)cc1)C(=O)N[C@@H](CCCN=C(N)N)C(=O)N[C@@H](CCCCN)C(=O)N[C@H](C(=O)N[C@@H](CC(C)C)C(=O)NCC(=O)N[C@@H](CCC(N)=O)C(=O)N[C@@H](CC(C)C)C(=O)N[C@@H]1CCC(=O)NCCCC[C@@H](C(=O)N[C@@H](CC(C)C)C(=O)N[C@@H](CC(C)C)C(=O)N[C@@H](CCC(N)=O)C(=O)N[C@@H](CC(=O)O)C(=O)N[C@H](C(=O)N[C@@H](CCSC)C(=O)N[C@@H](CO)C(=O)N[C@@H](CCCN=C(N)N)C(N)=O)[C@@H](C)CC)NC(=O)[C@H](CCCN=C(N)N)NC(=O)[C@@H](C)NC1=O)C(C)C)[C@@H](C)O
2.8 | CC[C@H](C)[C@H](NC(=O)[C@H](C)NC(=O)[C@H](CC(=O)O)NC(=O)[C@H](C)NC(=O)[C@@H](N)Cc1ccc(O)cc1)C(=O)N[C@@H](Cc1ccccc1)C(=O)N[C@H](C(=O)N[C@@H](CC(N)=O)C(=O)N[C@@H](CO)C(=O)N[C@@H](Cc1ccc(O)cc1)C(=O)N[C@@H](CCCN=C(N)N)C(=O)N[C@@H](CCCCN)C(=O)N[C@H](C(=O)N[C@@H](CC(C)C)C(=O)NCC(=O)N[C@H]1CCC(=O)NCCCC[C@H](C(=O)N[C@@H](CCCN=C(N)N)C(=O)N[C@@H](CCCCN)C(=O)N[C@@H](CC(C)C)C(=O)N[C@@H](CC(C)C)C(=O)N[C@@H](CCC(N)=O)C(=O)N[C@@H](CC(=O)O)C(=O)N[C@H](C(=O)N[C@@H](CCSC)C(=O)N[C@@H](CO)C(=O)N[C@@H](CCCN=C(N)N)C(N)=O)[C@@H](C)CC)NC(=O)[C@@H](CO)NC(=O)[C@H](CC(C)C)NC1=O)C(C)C)[C@@H](C)O
1.2 | CC[C@H](C)[C@H](NC(=O)[C@H](C)NC(=O)[C@H](CC(=O)O)NC(=O)[C@H](C)NC(=O)[C@@H](N)Cc1ccc(O)cc1)C(=O)N[C@@H](Cc1ccccc1)C(=O)N[C@H](C(=O)N[C@@H](CC(N)=O)C(=O)N[C@@H](CO)C(=O)N[C@@H](Cc1ccc(O)cc1)C(=O)N[C@@H](CCCN=C(N)N)C(=O)N[C@H]1CCC(=O)NCCCC[C@H](C(=O)N[C@H](CCC(N)=O)C(=O)N[C@H](CC(C)C)C(=O)N[C@H](CO)C(=O)N[C@H](C)C(=O)N[C@@H](CCCN=C(N)N)C(=O)N[C@@H](CCCCN)C(=O)N[C@@H](CC(C)C)C(=O)N[C@@H](CC(C)C)C(=O)N[C@@H](CCC(N)=O)C(=O)N[C@@H](CC(=O)O)C(=O)N[C@H](C(=O)N[C@@H](CCSC)C(=O)N[C@@H](CO)C(=O)N[C@@H](CCCN=C(N)N)C(N)=O)[C@@H](C)CC)NC(=O)[C@@H](CC(C)C)NC(=O)[C@H](C(C)C)NC1=O)[C@@H](C)O
0.014 | CC[C@H](C)[C@H](NC(=O)[C@H](C)NC(=O)[C@H](CC(=O)O)NC(=O)[C@H](C)NC(=O)[C@@H](N)Cc1ccc(O)cc1)C(=O)N[C@@H](Cc1ccccc1)C(=O)N[C@H](C(=O)N[C@H]1CCC(=O)NCCCC[C@H](C(=O)N[C@@H](CCCCN)C(=O)N[C@H](C(=O)N[C@@H](CC(C)C)C(=O)NCC(=O)N[C@@H](CCC(N)=O)C(=O)N[C@@H](CC(C)C)C(=O)N[C@@H](CO)C(=O)N[C@@H](C)C(=O)N[C@@H](CCCN=C(N)N)C(=O)N[C@@H](CCCCN)C(=O)N[C@@H](CC(C)C)C(=O)N[C@@H](CC(C)C)C(=O)N[C@@H](CCC(N)=O)C(=O)N[C@@H](CC(=O)O)C(=O)N[C@H](C(=O)N[C@@H](CCSC)C(=O)N[C@@H](CO)C(=O)N[C@@H](CCCN=C(N)N)C(N)=O)[C@@H](C)CC)C(C)C)NC(=O)[C@H](Cc2ccc(O)cc2)NC(=O)[C@H](CO)NC1=O)[C@@H](C)O
